Laboratory results: US5691372A, “Oxygenated-Heterocycle containing sulfonamide inhibitors of aspartyl protease” (Vertex Pharmaceuticals Incorporated, priority 1995, dated 1997)

Key:
HIV-1 protease = HIV-1 protease (Human immunodeficiency virus type 1 group M subtype B, UniProt P04585); experiment: inhibition constants against HIV-1 protease (method of Pennington et al.); type: biochemical
Excerpt: We have measured the inhibition constants of each compound against HIV-1 protease using the method described essentially by M. W. Pennington et al., Peptides 1990, Gimet, E. and D. Andrew, Eds., Escom; Leiden, Netherlands (1990).
We measured the inhibition constants of the compounds listed in Table II against HIV-1 protease using the above-cited method of Pennington et al.

[1] = test system: HIVIIIb in CCRM-CEM cells; experiment: anti-viral potency in CCRM-CEM cells acutely infected with HIVIIIb, extracellular p24 antigen (method of Meek et al.); type: cell-based, HIV-1; CD4+ human T-cell lymphoma cells; conditions: Human immunodeficiency virus 1
Protocol: Compounds of formula I were tested for their antiviral potency in several virological assays. In the first assay, the compounds were added as a solution in dimethylsulfoxide (DMSO) to a test cell culture of CCRM-CEM cells, a strain of CD4^+ human T-cell lymphoma cells, previously acutely infected with […] using standard protocols (see Meek, T. D. et al., "Inhibition of HIV-1 protease in infected T-lymphocytes by synthetic peptide analogues", Nature, 343, p. 90 (1990). Preferred compounds are those which are able to inhibit 90% of viral infectivity at a concentration of 1 μM or less. More preferred compounds are those which are able to inhibit 90% of viral infectivity at a concentration of 100 nM or less. The effect of the compounds on inhibiting the replication of the virus was measured by determining the HIV extracellular p24 antigen concentration using a commercial enzyme immunoassay (obtained from Coulter Corporation, Hialeah, Fla.). […] Ki and IC90 values are expressed in nM. The designation "ND" is used where a given compound was not tested.

In the case of `Nc1cccc(S(=O)(=O)N(CC2CCCC2)C[C@@H](O)[C@H](Cc2ccccc2)NC(=O)OC2COC3OCCCC23)c1` (single isomer, unassigned) [Compound 7], the Ki (HIV-1 protease) is reported as under 100 pM.

With `Nc1cccc(S(=O)(=O)N(CC2CCCC2)C[C@@H](O)[C@H](Cc2ccccc2)NC(=O)OC2COC3OCCCC23)c1` (single isomer, unassigned) [Compound 8] the Ki (HIV-1 protease) was under 100 pM.

`CC(C)CN(C[C@@H](O)[C@H](Cc1ccccc1)NC(=O)OC1COC2OCCCC12)S(=O)(=O)c1cccc(N)c1` (single isomer, unassigned) [Compound 9] was tested, and the Ki (HIV-1 protease) was 100 pM.

Molecule `CC(C)CN(C[C@@H](O)[C@H](Cc1ccccc1)NC(=O)OC1COC2OCCCC12)S(=O)(=O)c1cccc(N)c1` (single isomer, unassigned) [Compound 10] has a Ki (HIV-1 protease) of under 100 pM.

Work on `COc1ccc(S(=O)(=O)N(CC2CCCC2)C[C@@H](O)[C@H](Cc2ccccc2)NC(=O)OC2COCOC2)cc1` [Compound 1, N-Cyclopentylmethyl-N-((2 syn, 3S)-2-hydroxy-4-phenyl-3-(1,3-dioxan-5-yl-oxycarbonylamino))butyl-4-methoxy-benzenesulfonamide] yielded a Ki (HIV-1 protease) of under 100 pM and an IC90 [1] of 5000 pM.

`COc1ccc(S(=O)(=O)N(CC2CCCC2)C[C@@H](O)[C@H](Cc2ccccc2)NC(=O)OCC2COCO2)cc1` (stereo partly drawn) [Compound 2, N-Cyclopentylmethyl-N-((2 syn, 3S)-2-hydroxy-4-phenyl-3-(1,3-dioxolan-4-yl-methoxycarbonylamino))butyl-4-methoxy-benzenesulfonamide] gave a Ki (HIV-1 protease) of 300 pM.

`Nc1ccc(S(=O)(=O)N(CC2CCCC2)C[C@@H](O)[C@H](Cc2ccccc2)NC(=O)OC2COCOC2)cc1` [Compound 3, 4-Amino-N-cyclopentylmethyl-N-((2 syn, 3S)-2-hydroxy-4-phenyl-3-(1,3-dioxan-5-yl-oxycarbonylamino))butyl-benzenesulfonamide] showed a Ki (HIV-1 protease) of 100 pM and an IC90 [1] of 4000 pM.

`CC(C)CN(C[C@@H](O)[C@H](Cc1ccccc1)NC(=O)OC1COCOC1)S(=O)(=O)c1ccc(N)cc1` [Compound 4, 4-Amino-N-((2 syn, 3S)-2-hydroxy-4-phenyl-3-1,3-dioxan-5-yl-oxycarbonylamino)butyl-N-isobutyl-benzenesulfonamide] was tested, and the Ki (HIV-1 protease) was 300 pM and the IC90 [1] was 12000 pM.

Work on `CC(C)CN(C[C@@H](O)[C@H](Cc1ccccc1)NC(=O)OC1COCOC1)S(=O)(=O)c1cccc(N)c1` [Compound 5, 3-Amino-N-((2 syn, 3S)-2-hydroxy-4-phenyl-3-1,3-dioxan-5-yl-oxycarbonylamino)butyl-N-isobutyl-benzenesulfonamide] yielded a Ki (HIV-1 protease) of 150 pM and an IC90 [1] of 7000 pM.

For `Nc1cccc(S(=O)(=O)N(CC2CCCC2)C[C@@H](O)[C@H](Cc2ccccc2)NC(=O)OC2COCOC2)c1` [Compound 6, 3-Amino-N-cyclopentylmethyl-N-((2 syn, 3S)-2-hydroxy-4-phenyl-3-(1,3-dioxan-5-yl-oxycarbonylamino))butyl-benzenesulfonamide], the Ki (HIV-1 protease) was under 100 pM and the IC90 [1] was 5000 pM.

In the case of `CC(=O)Nc1ccc(S(=O)(=O)N(C)C[C@@H](O)[C@H](Cc2ccccc2)NC(=O)OC2COC3OCCCC23)cc1` (stereo partly drawn) [Compound 11, 4-Acetamido-N-((2 syn, 3S)-2-hydroxy-4-phenyl-3-tetrahydropyrano-[2,3-b]tetrahydrofuran-4-yloxycarbonylamino)butyl-N-methyl-benzenesulfonamide], the Ki (HIV-1 protease) is reported as 160000 pM.

`CC(C)C[C@H](NC(=O)OC1COC2OCCCC12)[C@H](O)CN(CC1CCCCC1)S(=O)(=O)c1cccc(N)c1` (stereo partly shown) [Compound 12] showed a Ki (HIV-1 protease) of 1500 pM.

In the case of `CC1(OC(=O)N[C@@H](Cc2ccccc2)[C@H](O)CN(CC2CCCC2)S(=O)(=O)c2cccc(N)c2)CCOC1` (stereo partly drawn) [Compound 15, 3-Amino-N-cyclopentylmethyl-N-((2 syn, 3S)-2-hydroxy-4-phenyl-3-(3-methyltetrahydrofuran-3-yl)oxycarbonylamino)butyl-benzenesulfonamide], the Ki (HIV-1 protease) is reported as 400 pM.

`CC(C)CN(C[C@@H](O)[C@H](Cc1ccccc1)NC(=O)OC1(C)CCOC1)S(=O)(=O)c1cccc(N)c1` (stereo partly drawn) [Compound 16, 3-Amino-N-((2 syn, 3S)-2-hydroxy-4-phenyl-3-(3-methyltetrahydrofuran-3-yl)oxycarbonylamino)butyl-N-isobutyl-benzenesulfonamide] showed a Ki (HIV-1 protease) of 1500 pM.
